According to PubChem BioAssay AID1259407 (Chemical Carcinogenesis Research Information System (CCRIS), 2018):
Active and inactive are the calls of the source. How the calls were made is not given here.

System: CCRIS mutagenicity, Ames/micronucleus/aberration tests
Assay: CCRIS mutagenicity studies
[1] = Test System: AMES SALMONELLA TYPHIMURIUM, Strain/Indicator: TA98, Metabolic Activation: NONE, Method: PREINCUBATION
[2] = Test System: AMES SALMONELLA TYPHIMURIUM, Strain/Indicator: TA100, Metabolic Activation: NONE, Method: PREINCUBATION
[3] = Test System: AMES SALMONELLA TYPHIMURIUM, Strain/Indicator: TA1535, Metabolic Activation: NONE, Method: PREINCUBATION
[4] = Test System: AMES SALMONELLA TYPHIMURIUM, Strain/Indicator: TA1537, Metabolic Activation: NONE, Method: PREINCUBATION

Measured: mutagenic call

CCCCC(CC)COC(=O)C(C#N)=C(c1ccccc1)c1ccccc1 (stereo unspecified)
inactive: Test System: AMES SALMONELLA TYPHIMURIUM, Strain/Indicator: TA98, Metabolic Activation: HAMSTER, LIVER, S-9, AROCLOR 1254 (10%), Method: PREINCUBATION inactive; negative | [1] inactive; negative | Test System: AMES SALMONELLA TYPHIMURIUM, Strain/Indicator: TA98, Metabolic Activation: RAT, LIVER, S-9, AROCLOR 1254 (10%), Method: PREINCUBATION inactive; negative | Test System: AMES SALMONELLA TYPHIMURIUM, Strain/Indicator: TA100, Metabolic Activation: HAMSTER, LIVER, S-9, AROCLOR 1254 (10%), Method: PREINCUBATION inactive; negative | [2] inactive; negative | Test System: AMES SALMONELLA TYPHIMURIUM, Strain/Indicator: TA100, Metabolic Activation: RAT, LIVER, S-9, AROCLOR 1254 (10%), Method: PREINCUBATION inactive; negative | Test System: AMES SALMONELLA TYPHIMURIUM, Strain/Indicator: TA1535, Metabolic Activation: HAMSTER, LIVER, S-9, AROCLOR 1254 (10%), Method: PREINCUBATION inactive; negative | [3] inactive; negative | Test System: AMES SALMONELLA TYPHIMURIUM, Strain/Indicator: TA1535, Metabolic Activation: RAT, LIVER, S-9, AROCLOR 1254 (10%), Method: PREINCUBATION inactive; negative | Test System: AMES SALMONELLA TYPHIMURIUM, Strain/Indicator: TA1537, Metabolic Activation: HAMSTER, LIVER, S-9, AROCLOR 1254 (10%), Method: PREINCUBATION inactive; negative | [4] inactive; negative | Test System: AMES SALMONELLA TYPHIMURIUM, Strain/Indicator: TA1537, Metabolic Activation: RAT, LIVER, S-9, AROCLOR 1254 (10%), Method: PREINCUBATION inactive; negative | Test System: MOUSE LYMPHOMA, Strain/Indicator: L5178Y (TK+/TK-), Metabolic Activation: NONE, Method: SUSPENSION/PLATE inactive; negative | Test System: MOUSE LYMPHOMA, Strain/Indicator: L5178Y (TK+/TK-), Metabolic Activation: RAT, LIVER, S-9, AROCLOR 1254, Method: SUSPENSION/PLATE inactive; negative

CCCCCCCCCCCCc1ccccc1
inactive: [1] inactive; negative | Test System: AMES SALMONELLA TYPHIMURIUM, Strain/Indicator: TA98, Metabolic Activation: RAT, LIVER, S-9, KC 500, Method: PREINCUBATION inactive; negative | [2] inactive; negative | Test System: AMES SALMONELLA TYPHIMURIUM, Strain/Indicator: TA100, Metabolic Activation: RAT, LIVER, S-9, KC 500, Method: PREINCUBATION inactive; negative | [3] inactive; negative | Test System: AMES SALMONELLA TYPHIMURIUM, Strain/Indicator: TA1535, Metabolic Activation: RAT, LIVER, S-9, KC 500, Method: PREINCUBATION inactive; negative | [4] inactive; negative | Test System: AMES SALMONELLA TYPHIMURIUM, Strain/Indicator: TA1537, Metabolic Activation: RAT, LIVER, S-9, KC 500, Method: PREINCUBATION inactive; negative | Test System: AMES SALMONELLA TYPHIMURIUM, Strain/Indicator: TA1538, Metabolic Activation: NONE, Method: PREINCUBATION inactive; negative | Test System: AMES SALMONELLA TYPHIMURIUM, Strain/Indicator: TA1538, Metabolic Activation: RAT, LIVER, S-9, KC 500, Method: PREINCUBATION inactive; negative | Test System: E. COLI, Strain/Indicator: WP2 UVRA, Metabolic Activation: NONE, Method: PREINCUBATION inactive; negative | Test System: E. COLI, Strain/Indicator: WP2 UVRA, Metabolic Activation: RAT, LIVER, S-9, KC 500, Method: PREINCUBATION inactive; negative

CC(O)CC(C)(C)O (stereo unspecified)
inactive: Test System: Ames Salmonella typhimurium, Strain/Indicator: TA98, Metabolic Activation: None, Method: Preincubation inactive; negative | Test System: Ames Salmonella typhimurium, Strain/Indicator: TA98, Metabolic Activation: Rat, Liver, S9, Sodium phenobarbital and 5,6-benzoflavone (10%), Method: Preincubation inactive; negative | Test System: Ames Salmonella typhimurium, Strain/Indicator: TA100, Metabolic Activation: None, Method: Preincubation inactive; negative | Test System: Ames Salmonella typhimurium, Strain/Indicator: TA100, Metabolic Activation: Rat, Liver, S9, Sodium phenobarbital and 5,6-benzoflavone (10%), Method: Preincubation inactive; negative | Test System: Ames Salmonella typhimurium, Strain/Indicator: TA1535, Metabolic Activation: None, Method: Preincubation inactive; negative | Test System: Ames Salmonella typhimurium, Strain/Indicator: TA1535, Metabolic Activation: Rat, Liver, S9, Sodium phenobarbital and 5,6-benzoflavone (10%), Method: Preincubation inactive; negative | Test System: Ames Salmonella typhimurium, Strain/Indicator: TA1537, Metabolic Activation: None, Method: Preincubation inactive; negative | Test System: Ames Salmonella typhimurium, Strain/Indicator: TA1537, Metabolic Activation: Rat, Liver, S9, Sodium phenobarbital and 5,6-benzoflavone (10%), Method: Preincubation inactive; negative | Test System: E. coli, Strain/Indicator: WP2uvrA/pKM101, Metabolic Activation: None, Method: Preincubation inactive; negative | Test System: E. coli, Strain/Indicator: WP2uvrA/pKM101, Metabolic Activation: Rat, Liver, S9, Sodium Phenobarbital and 5,6-benzoflavone (10%), Method: Preincubation inactive; negative
